Measurements reported in article PMC5433425 (PeerJ, 2017).
Where “and” joins values, the source holds several entries; their conditions need not be identical. Equal entries are not always repeated. Where two headings read alike, the source gives them in different places. Peptide text beside a SMILES is read from it. * marks the point of attachment. βNA = c1ccc2cc(N*)ccc2c1

Columns and labels:
[1] = system: E. coli AG100A (AcrAB pump-deficient); test: MIC, broth microdilution; format: cell-based, Escherichia coli; details: Escherichia coli
E. coli AG100 [2] = test: Checkerboard synergy assay (MIC of antibiotics/EtBr with efflux inhibitor); format: cell-based, Escherichia coli; details: Escherichia coli
Method: (§1) The assays were performed in triplicate and the MIC value was given as result of at least two concordant values.

E. coli AG100tet = test: microbe, parasite or virus in culture; format: cell-based, Escherichia coli; details: for MIC: Escherichia coli, AG100TET
Method: as §1

E. coli AG100A = details: EtBr […] + inhibitor 20 µM
E. coli AG100 [3] = test: EtBr efflux by real-time fluorometry; details: for EtBr fluorescence (Channel Cycling A.530/585hp): 80 µM
Method: Control tubes with only cells and cells with and without 0.4% glucose were included. The fluorescence was measured in a Rotor-Gene 3000 and the data was acquired every 30 s for 30 min at 37 °C. The efflux activity was quantified by comparing the fluorescence data obtained under conditions that promote efflux (presence of glucose and absence of efflux inhibitor) with the data from the control in which the bacteria are under conditions of no efflux (presence of an inhibitor and no energy source).

## NC(N)=NCCC[C@H](NC(=O)[C@@H](N)Cc1ccccc1)C(=O)Nc1ccc2ccccc2c1 [PAβN] (H-Phe-Arg-βNA)
[1]
  MIC: 50 µg/mL and 96.3 µM
E. coli AG100 [2]; AG100, AG100, inhibitor 40 μM, read-out: MIC of OXA in presence of the efflux inhibitor
  MIC: 64 µg/mL
E. coli AG100 [2]; AG100, AG100, inhibitor 80 μM, read-out: MIC of OXA in presence of the efflux inhibitor
  MIC: 64 µg/mL
E. coli AG100 [2]; AG100, AG100, inhibitor 160 μM, read-out: MIC of OXA in presence of the efflux inhibitor
  MIC: 64 µg/mL
E. coli AG100 [2]; AG100, read-out: MIC of EtBr in presence of the efflux inhibitor, AG100, inhibitor 40 μM
  MIC: 100 µg/mL
E. coli AG100 [2]; AG100, read-out: MIC of EtBr in presence of the efflux inhibitor, AG100, inhibitor 80 μM
  MIC: 100 µg/mL
E. coli AG100 [2]; AG100, read-out: MIC of EtBr in presence of the efflux inhibitor, AG100, inhibitor 160 μM
  MIC: 100 µg/mL
E. coli AG100 [2]; AG100, read-out: MIC of OFX in presence of the efflux inhibitor, AG100, inhibitor 40 μM
  MIC: 0.06 µg/mL
E. coli AG100 [2]; AG100, read-out: MIC of OFX in presence of the efflux inhibitor, AG100, inhibitor 80 μM
  MIC: 0.06 µg/mL
E. coli AG100 [2]; AG100, read-out: MIC of OFX in presence of the efflux inhibitor, AG100, inhibitor 160 μM
  MIC: 0.06 µg/mL
E. coli AG100 [2]; AG100, read-out: MIC of TET in presence of the efflux inhibitor, AG100, inhibitor 40 μM
  MIC: 2 µg/mL
E. coli AG100 [2]; AG100, read-out: MIC of TET in presence of the efflux inhibitor, AG100, inhibitor 80 μM
  MIC: 1 µg/mL
E. coli AG100 [2]; AG100, read-out: MIC of TET in presence of the efflux inhibitor, AG100, inhibitor 160 μM
  MIC: 0.06 µg/mL
E. coli AG100tet; AG100tet (AcrAB-overexpressing strain)
  decrease in EtBr MIC: 128 fold
E. coli AG100tet; read-out: MIC of EtBr in presence of the efflux inhibitor, AG100tet, inhibitor 40 μM
  MIC: 256 µg/mL
E. coli AG100tet; read-out: MIC of EtBr in presence of the efflux inhibitor, AG100tet, inhibitor 80 μM
  MIC: 128 µg/mL
E. coli AG100tet; read-out: MIC of EtBr in presence of the efflux inhibitor, AG100tet, inhibitor 160 μM
  MIC: 4 µg/mL
E. coli AG100tet; read-out: MIC of OFX in presence of the efflux inhibitor, AG100tet, inhibitor 40 μM
  MIC: 0.06 µg/mL
E. coli AG100tet; read-out: MIC of OFX in presence of the efflux inhibitor, AG100tet, inhibitor 80 μM
  MIC: 0.03 µg/mL
E. coli AG100tet; read-out: MIC of OFX in presence of the efflux inhibitor, AG100tet, inhibitor 160 μM
  MIC: 0.03 µg/mL
E. coli AG100tet; read-out: MIC of OXA in presence of the efflux inhibitor, AG100tet, inhibitor 40 μM
  MIC: 256 µg/mL
E. coli AG100tet; read-out: MIC of OXA in presence of the efflux inhibitor, AG100tet, inhibitor 80 μM
  MIC: 256 µg/mL
E. coli AG100tet; read-out: MIC of OXA in presence of the efflux inhibitor, AG100tet, inhibitor 160 μM
  MIC: 64 µg/mL
E. coli AG100tet; read-out: MIC of TET in presence of the efflux inhibitor, AG100tet, inhibitor 40 μM
  MIC: 8 µg/mL
E. coli AG100tet; read-out: MIC of TET in presence of the efflux inhibitor, AG100tet, inhibitor 80 μM
  MIC: 4 µg/mL
E. coli AG100tet; read-out: MIC of TET in presence of the efflux inhibitor, AG100tet, inhibitor 160 μM
  MIC: 2 µg/mL
E. coli AG100A; cycle 1
  EtBr fluorescence: 2.806
E. coli AG100A; cycle 2
  EtBr fluorescence: 3.199
E. coli AG100A; cycle 3
  EtBr fluorescence: 3.493
E. coli AG100A; cycle 4
  EtBr fluorescence: 3.706
E. coli AG100A; cycle 5
  EtBr fluorescence: 3.997
E. coli AG100A; cycle 6
  EtBr fluorescence: 4.263
E. coli AG100A; cycle 7
  EtBr fluorescence: 4.462
E. coli AG100A; cycle 8
  EtBr fluorescence: 4.698
E. coli AG100A; cycle 9
  EtBr fluorescence: 5.01
E. coli AG100A; cycle 10
  EtBr fluorescence: 5.162
E. coli AG100A; cycle 11
  EtBr fluorescence: 5.32
E. coli AG100A; cycle 12
  EtBr fluorescence: 5.607
E. coli AG100A; cycle 13
  EtBr fluorescence: 5.848
E. coli AG100A; cycle 14
  EtBr fluorescence: 6.013
E. coli AG100A; cycle 15
  EtBr fluorescence: 6.228
E. coli AG100A; cycle 16
  EtBr fluorescence: 6.479
E. coli AG100A; cycle 17
  EtBr fluorescence: 6.607
E. coli AG100A; cycle 18
  EtBr fluorescence: 6.927
E. coli AG100A; cycle 19
  EtBr fluorescence: 6.923
E. coli AG100A; cycle 20
  EtBr fluorescence: 7.2698
E. coli AG100A; cycle 21
  EtBr fluorescence: 7.508
E. coli AG100A; cycle 22
  EtBr fluorescence: 7.627
E. coli AG100A; cycle 23
  EtBr fluorescence: 7.913
E. coli AG100A; cycle 24
  EtBr fluorescence: 7.996
E. coli AG100A; cycle 25
  EtBr fluorescence: 8.302
E. coli AG100A; cycle 26
  EtBr fluorescence: 8.33
E. coli AG100A; cycle 27
  EtBr fluorescence: 8.55
E. coli AG100A; cycle 28
  EtBr fluorescence: 8.862
E. coli AG100A; cycle 29
  EtBr fluorescence: 8.894
E. coli AG100A; cycle 30
  EtBr fluorescence: 9.1148
E. coli AG100 [3]; AG100, AG100A and AG100tet (Fig. 2), 80 μM (20 μM for AG100A), glucose, 37 °C
  inhibition of EtBr efflux: to a lesser extent
E. coli AG100 [3]; cycle 1, + glucose
  EtBr fluorescence (Channel Cycling A.530/585hp): 2.175
E. coli AG100 [3]; cycle 1, without glucose
  EtBr fluorescence (Channel Cycling A.530/585hp): 1.796
E. coli AG100 [3]; cycle 2, + glucose
  EtBr fluorescence (Channel Cycling A.530/585hp): 1.889
E. coli AG100 [3]; cycle 2, without glucose
  EtBr fluorescence (Channel Cycling A.530/585hp): 1.72
E. coli AG100 [3]; cycle 3, + glucose
  EtBr fluorescence (Channel Cycling A.530/585hp): 1.756
E. coli AG100 [3]; cycle 3, without glucose
  EtBr fluorescence (Channel Cycling A.530/585hp): 1.635
E. coli AG100 [3]; cycle 4, without glucose
  EtBr fluorescence (Channel Cycling A.530/585hp): 1.556
E. coli AG100 [3]; cycle 5, without glucose
  EtBr fluorescence (Channel Cycling A.530/585hp): 1.502
E. coli AG100 [3]; cycle 6, without glucose
  EtBr fluorescence (Channel Cycling A.530/585hp): 1.4519
E. coli AG100 [3]; cycle 7, without glucose
  EtBr fluorescence (Channel Cycling A.530/585hp): 1.472
E. coli AG100 [3]; cycle 8, without glucose
  EtBr fluorescence (Channel Cycling A.530/585hp): 1.378
E. coli AG100 [3]; cycle 9, + glucose
  EtBr fluorescence (Channel Cycling A.530/585hp): 1.339
E. coli AG100 [3]; cycle 9, without glucose
  EtBr fluorescence (Channel Cycling A.530/585hp): 1.359
E. coli AG100 [3]; cycle 10, + glucose
  EtBr fluorescence (Channel Cycling A.530/585hp): 1.264
E. coli AG100 [3]; cycle 10, without glucose
  EtBr fluorescence (Channel Cycling A.530/585hp): 1.368
E. coli AG100 [3]; cycle 11, + glucose
  EtBr fluorescence (Channel Cycling A.530/585hp): 1.2447
E. coli AG100 [3]; cycle 11, without glucose
  EtBr fluorescence (Channel Cycling A.530/585hp): 1.355
E. coli AG100 [3]; cycle 12, + glucose
  EtBr fluorescence (Channel Cycling A.530/585hp): 1.251
E. coli AG100 [3]; cycle 12, without glucose
  EtBr fluorescence (Channel Cycling A.530/585hp): 1.312
E. coli AG100 [3]; cycle 13, + glucose
  EtBr fluorescence (Channel Cycling A.530/585hp): 1.259
E. coli AG100 [3]; cycle 13, without glucose
  EtBr fluorescence (Channel Cycling A.530/585hp): 1.3469
E. coli AG100 [3]; cycle 14, + glucose
  EtBr fluorescence (Channel Cycling A.530/585hp): 1.222
E. coli AG100 [3]; cycle 14, without glucose
  EtBr fluorescence (Channel Cycling A.530/585hp): 1.257
E. coli AG100 [3]; cycle 15, + glucose
  EtBr fluorescence (Channel Cycling A.530/585hp): 1.22
E. coli AG100 [3]; cycle 15, without glucose
  EtBr fluorescence (Channel Cycling A.530/585hp): 1.235
E. coli AG100 [3]; cycle 16, + glucose
  EtBr fluorescence (Channel Cycling A.530/585hp): 1.167
E. coli AG100 [3]; cycle 16, without glucose
  EtBr fluorescence (Channel Cycling A.530/585hp): 1.232
E. coli AG100 [3]; cycle 17, + glucose
  EtBr fluorescence (Channel Cycling A.530/585hp): 1.194
E. coli AG100 [3]; cycle 17, without glucose
  EtBr fluorescence (Channel Cycling A.530/585hp): 1.242
E. coli AG100 [3]; cycle 18, + glucose
  EtBr fluorescence (Channel Cycling A.530/585hp): 1.167
E. coli AG100 [3]; cycle 18, without glucose
  EtBr fluorescence (Channel Cycling A.530/585hp): 1.283
E. coli AG100 [3]; cycle 19, + glucose
  EtBr fluorescence (Channel Cycling A.530/585hp): 1.179
E. coli AG100 [3]; cycle 19, without glucose
  EtBr fluorescence (Channel Cycling A.530/585hp): 1.241
E. coli AG100 [3]; cycle 20, + glucose
  EtBr fluorescence (Channel Cycling A.530/585hp): 1.201
E. coli AG100 [3]; cycle 20, without glucose
  EtBr fluorescence (Channel Cycling A.530/585hp): 1.199
E. coli AG100 [3]; cycle 21, + glucose
  EtBr fluorescence (Channel Cycling A.530/585hp): 1.201
E. coli AG100 [3]; cycle 21, without glucose
  EtBr fluorescence (Channel Cycling A.530/585hp): 1.185
E. coli AG100 [3]; cycle 22, + glucose
  EtBr fluorescence (Channel Cycling A.530/585hp): 1.145
